Laboratory results taken from patent publication US11040056B2, “Benzimidazoles that enhance the activity of oligonucleotides” (The University of North Carolina at Chapel Hill, priority 2018, dated 2021).
d = 2'-deoxy (DNA); m = 2'-O-methyl

Tests used:
HeLaLuc705 cells = assay: SSO-mediated luciferase induction assay; format: cell-based; settings: for EC50: luciferase induction by SSO623
Protocol: FIG. 1B-1E. Effects with SSOs. FIG. 1B Structure of UNC2383. […] The cells were then rinsed and incubation continued for an additional 4 h in DMEM+10% FBS. Cells were rinsed twice in PBS and luciferase activity (RLU) and cell protein determined. The larger round symbol indicates the MM oligonucleotide. Means+/−SE. N=3. […] The cells were further incubated and then luciferase and protein determined. The total time of incubation in each case was 6 h. […] Means+/−SE. N=3.
(§1) FIG. 3. Effect and Cytotoxicity of Analogs. The effect of selected UNC2383 analogs on luciferase induction by SSO623 was measured as described in Methods and in the legend of FIG. 1B-1E. Cytotoxicity was measured using the Alamar Blue method as in FIG. 1E. MM10 is the effect of 10 uM compound in the presence of a mismatched oligonucleotide. Means and SE. N=3.
HeLaLuc705 cells are stably transfected with a firefly luciferase reporter whose coding sequence is interrupted by an abnormal intron. […] NIH-3T3-MDR cells are stably transfected with a human MDR1 cDNA coding for the P-glycoprotein (Pgp). We have described the maintenance and use of these cell lines elsewhere. (18, 20)
(§2) SSO-mediated luciferase induction assays were conducted as previously described. (18) In short, HeLaLuc705 cells in 24 well culture plates were preincubated with SSO623 followed by brief treatment with the small molecule; at intervals thereafter, luciferase activity and protein content were determined. […] (30)

[1] = tested on: CFTR channel activity in human bronchial epithelial cells (HBEC) from a 3849+10 kbC-T homozygous patient; assay: Ussing chamber analysis of CFTR function in 3849+10 kbC-T HBEC; format: cell-based; settings: SSO A 1 uM overnight, OEC 4 uM 2 hs luminal or serosal, 72 h, approved drugs in parallel
From the text: FIG. 11. CFTR activity restored to CF splicing mutation 3849+10 kbC-T using SSOs. SSOs were delivered in vitro by electroporation (˜100% efficiency), CF primary cells were differentiated on permeable supports and tested. Panel A. PCR analysis. The lower band is the correctly spliced CFTR. Panel B. Functional correction by Ussing chamber analysis.
FIG. 12. OEC Mediated Delivery of a SSO in 3849+10 kbC-T HBEC. Well-differentiated human bronchial epithelial cells (HBEC) derived from a 3849+10 kbC-T homozygous patient were incubated with corrective (LNA) SSO A from FIG. 1 (1 uM, overnight). Cells were then incubated with OEC UNC2383 in the luminal or serosal bath (4 uM, 2 hs). Both the SSO and OEC were added in cell growing medium. Seventy two hour later, HBEC were analyzed in Ussing chamber for CFTR function. Orkambi® was tested in parallel inserts.
Results: In vitro studies were performed in well-differentiated HBEC cells derived from a homozygous 3849+10 kbC→T CF patient (CF HBEC) treated with one dose of a specific SSO (1 uM, 12 hs) followed by one dose of OEC (apical or basolateral delivery, 2-4 uM, 2-3 hs). A significant increase of forskolin-stimulated CFTR activity in Ussing chamber analyses was observed 24-96 hs after SSO+OEC treatment compared to SSO alone treatment or vehicle. OEC was efficacious delivered apically as well as basolaterally. Transepithelial resistance and microscopy tests were implemented to monitor cytotoxicity, which was negligible for both SSO and OEC (FIG. 12). In vivo studies were performed in a transgenic mouse model that has a SSO-inducible EGFP reporter.
SSOs (100 nM) were introduced in airway epithelial cells derived from a 3849+10 kbC-T homozygous CF patient in suspension by electroporation using the Neon system, program A4. Cells were differentiated for 2 weeks in culture on human collagen-coated permeable supports (Millipore) before being tested in Ussing chambers following methods described in Kreda et al. […] “Characterization of Wild-Type and ΔF508 Cystic Fibrosis Transmembrane Regulator in Human Respiratory Epithelia” Mol. Biol. Cell 16(5):2154-2167 (100 uM Amiloride, Amil; 10 uM Forskolin, Fsk; 20 uM CFTR inhibitor 172). After Ussing chamber analysis, cells were lysed and assayed for RT-PCR as described in Wang et al 2017 (FIG. 11).
(SEQ ID NO:2), C (5′+G*mA*mG*mU*+C*mU*mU**mU*mA*+C*mU*mC*mA*mC*mC*+A*mU*mU*mU) (SEQ ID NO:3) (Locked Nucleic Acid (LNA)=+, PS=*, 2′OMe=m). In SSO sequences A, B, and C the underlined bases indicate oligo bases that match up to the bases in the mutated splice site in the 3849+10 kb C-T CFTR splicing mutation. MM623 or SSO623 sequences are described herein. […]

[2] = Alamar Blue cytotoxicity assay; format: cell-based; settings: human, HeLa Luc705 cells; Alamar Blue cytotoxicity; read-out: TC50
Protocol: (§3) FIG. 1B-1E. Effects with SSOs. FIG. 1B Structure of UNC2383. FIG. 1C Compound 2383 enhances SSO effects. Cells were incubated in 24-well plates with 100 nM SSO623 or its mismatched control (MM) for 16 h in DMEM+10% FBS, rinsed and then treated with various concentrations of 2383 for 2 h. The cells were then rinsed and incubation continued for an additional 4 h in DMEM+10% FBS. Cells were rinsed twice in PBS and luciferase activity (RLU) and cell protein determined. The larger round symbol indicates the MM oligonucleotide. Means+/−SE. N=3. FIG. 1D Kinetics of 2383 action. Cells were preloaded with 100 nM SSO623 and then exposed to 2383 for various periods after which the compound was removed. The cells were further incubated and then luciferase and protein determined. The total time of incubation in each case was 6 h. FIG. 1E Cytotoxicity of 2383. HeLa Luc705 or NIH-3T3-MDR cells were exposed to 2383 as in (FIG. 1C) then incubated for 24 h in DMEM plus 10% FBS and tested using the Alamar Blue cytotoxicity assay. Means+/−SE. N=3.
as §1
(§4) SSO-mediated luciferase induction assays were conducted as previously described. (18) In short, HeLaLuc705 cells in 24 well culture plates were preincubated with SSO623 followed by brief treatment with the small molecule; at intervals thereafter, luciferase activity and protein content were determined. ASO mediated inhibition of MDR1 gene expression utilized an Alexa 488 labeled anti-P-glycoprotein antibody and flow cytometry to measure Pgp expression as described. (20) The anti-MDR1 sequence is 5′-CCATCccgacctcgcGCTCC-3′(SEQ ID NO: 5) (all phosphorothiopate with 2-O-Me residues in capitals). Cytotoxicity of 2383 was monitored using the Alamar Blue assay. (30)

HeLa Luc705 cells = assay: Alamar Blue cytotoxicity assay; format: cell-based; settings: ratio of cytotoxicity TC50 to luciferase induction EC50
Protocol: as §3, §1, §4

[3] = tested on: lysosomes of HeLa Luc 705 cells; assay: Lysotracker Red accumulation assay; format: cell-based; settings: 10 μM
Protocol: FIG. 9A-9D. Effects on lysosomes. FIG. 9A: Lysotracker uptake. Accumulation of Lysotracker Red in HeLa Luc 705 cells was measured after a 2 h exposure of cells to the indicated concentrations of various analogs. The lysosomotropic compound chloroquine was included as a positive control. Means of triplicate determinations are shown. The color-coded numbers refer to the fold increase in luciferase induction attained by the concentration of analog associated with the adjacent symbol on the graph. The numbers are taken from the data of FIG. 1C for UNC2383 and FIG. 4 for UNC4267, UNC4258, and UNC4428. FIG. 9B: LT50 vs TC50. […] Nonlinear regression was calculated using Prism software. The R^2 value for the plot is 0.91. FIG. 9C: 2383 vs chloroquine; luciferase induction. HeLa Luc705 cells were exposed to SSO623 and then treated with various concentrations of UNC2383 or chloroquine for 2 h and then tested for luciferase induction following the methods described in FIG. 1B-FIG. 1E. […]
The integrity of lysosomes was evaluated using the fluorescent probe Lysotracker Red (Thermo Fisher). […] Cells were thoroughly rinsed in PBS, lysed in 0.2% TX 100, and centrifuged briefly at 4000 rpm, and 100 uL of the supernate was distributed to black 96 well plates for analysis of fluorescence using a FLUOstar Omega 96 well microplate reader.

[4] = tested on: P-glycoprotein (Pgp) expression in NIH-3T3-MDR cells; assay: ASO mediated inhibition of MDR1 gene expression (Pgp by flow cytometry); format: cell-based, mouse; settings: 100 nM anti-MDR1 ASO 16 h; 10 μM UNC2383 2 h where used; 48 h
Protocol: FIG. 4. Effects with ASOs. Reduction of Pgp expression. NIH 3T3-MDR cells were incubated with 100 nM anti-MDR1 ASO or a mismatched (MM) control for 16 h in DMEM+1% FBS. Cells were rinsed and then treated with 10 μM UNC2383 for 2 h. The compound was removed, and the cells further incubated for 48 h. Expression of Pgp on the cell surface was determined by treating cells with Alexa 488 labeled anti-Pgp monoclonal antibody and binding quantitated by flow cytometry (PE(A)=units of fluorescence intensity). Treatment with ASO complexed with Lipofectamine 2000 (L2K) was a positive control. Y axis, cell counts; X axis, Alexa 488 fluorescence. […] Means±SE, N=3.
We also tested UNC2383 for its ability to affect ASOs rather than SSOs. The ASO was designed to inhibit expression of the MDR1 gene and its product the P-glycoprotein multidrug transporter. […] Cell surface expression of P-glycoprotein was monitored using an Alexa 488 labeled anti-Pgp monoclonal antibody and flow cytometry. […]
as §2, with “Cytotoxicity of 2383 was monitored using the Alamar Blue assay. […]” for “(30)”

[5] = mouse, in vivo
Protocol: All animal procedures were conducted in compliance with guidelines of the UNC Laboratory Animal Medicine Department and with federal guidelines. […] (20, 32) EGFP654 mice were administered 35 mg/kg of SSO623 or mismatched oligonucleotide in buffer by intraperitoneal injection on two consecutive days. One day later, mice received either 5 mg/kg of UNC2383 in a 1:1 DMSO/PEG400 solution or only the diluent, via intraperitoneal injection. […] After 24 h, the second cohort was euthanized and tissue and cardiac blood samples were obtained. […] (31) Blood samples were analyzed by the UNC Animal Clinical Chemistry Core facility.

Row | Compound | EC50 (HeLaLuc705 cells) | CC50 at 2 h [2] | TC50/EC50 (HeLa Luc705 cells) | also measured
1 | CCN(CC)CCCC(C)Nc1ccnc2cc(Cl)ccc12 (centres unmarked) [Chloroquine, chloroquine, reference compound] | – | – | – | SSO-mediated luciferase induction, comparison with chloroquine (HeLaLuc705 cells; FIG. 9C, 2 h, chloroquine also 16 h): little effect
2 | CC(C)(C)c1cc(C(C)(C)C)c(NC(=O)c2c[nH]c3ccccc3c2=O)cc1O [Ivactafor®/Kalydeco®, reference compound] | – | – | – | CFTR channel activity / functional correction [1]: minimal effect; CFTR channel activity / functional correction ([1]; listed as Kalydeco®): no effect
3 | O=C(Nc1nc2ccccc2n1CCN1CCCC1)c1cc2cc(Br)ccc2o1 [UNC4251] | 2 µM | 7 µM | 3.5 | –
4 | COc1ccc2oc(C(=O)Nc3nc4ccccc4n3CCN3CCCC3)cc2c1 [UNC4253] | 11 µM | 48 µM | 4.4 | –
5 | O=C(Nc1nc2cc(Cl)ccc2n1CCN1CCCC1)c1cc2cc(Cl)ccc2o1 [UNC4425] | 6 µM | 12.5 µM | 2.1 | –
6 | Cc1ccc2c(c1)nc(NC(=O)c1cc3cc(Cl)ccc3o1)n2CCN1CCCC1 [UNC4426] | 3.5 µM | 13 µM | 3.7 | –
7 | O=C(Nc1nc2cc(Cl)c(Cl)cc2n1CCN1CCCC1)c1cc2cc(Cl)ccc2o1 [UNC4428] | 10 µM | 50 µM | 5 | enhancement of SSO actions (HeLaLuc705 cells; 10 μM): quite strongly enhanced; effect on lysotracker accumulation [3]: little effect
8 | ASO: anti-MDR1 antisense oligonucleotide 5′-CCATCccgacctcgcGCTCC-3′ (SEQ ID NO: 5) (antisense CCATCCCGACCTCGCGCTCC; sugars from the 5' end m5 d10 m5, all phosphorothioate, methylation of C and T or U not given here) [reference compound] | – | – | – | Pgp expression on the cell surface [4]: virtually no effect
9 | SSO623: 2′-O Me phosphorothioate splice switching oligonucleotide 5′-GTTATTCTTTAGAATGGTGC-3′ (SEQ ID NO: 4) (all 2'-O-methyl, all phosphorothioate, T or U not given here) | – | – | – | ALT [5]: 51 +/− 8 U/L; AST [5]: 65 +/− 23 U/L; BUN [5]: 23 ± 2 mg/dL; Hb [5]: 13.8 ± 0.8 g/dL; Platelets [5]: 824 +/− 266 × 10^3/ul
